Laboratory results: patent US8716231B2, “Use of benzo-fused heterocycle sulfamide derivatives for the treatment of pain” (Janssen Pharmaceutica NV, priority 2005, dated 2014)
Several values for one entry are separate records, joined by “and”; a condition that tells them apart may be missing. Equal values may be shown once.

What was measured:
[1] = tested on: tactile allodynia in L5 SNL rats (von Frey withdrawal threshold); assay: Lumbar 5 (L5) Spinal Nerve Ligation (Chung) Model of Neuropathic Pain, Studies A-D; assay type: in vivo, Sprague-Dawley rats; conditions: for withdrawal thresholds: 2 hrs, 4 hrs and 6 hrs after oral administration
Description: The rat Chung model is an assay used in determining whether a compound is useful for the treatment of neuropathic pain (Kim and Chung, 1994; Chaplan et al., 1994). In this assay, injury to the sciatic nerve by loose ligation with chromic gut suture, tight ligation of the L5 spinal nerve with silk suture or partial tight ligation with silk suture each produces hypersensitivity to many stimulus modalities (e.g., touch, pressure, temperature) that lasts for weeks or months. Hypersensitivity produced by such injuries is reminiscent of allodynia and hyperalgesia observed in clinical conditions of neuropathic pain caused by mechanical nerve injury, diabetes and chemotherapy. This assay is predictive of analgesic, antiallodynic and/or antihyperalgesic effect of test compounds.
Test compound and controls were dissolved in the appropriate volume of 0.5% HPMC or 10% solutol in 0.5% hydoxypropyl methylcellulose (HPMC). HPMC served as the vehicle for preparation of gabapentin solutions used as the positive control. Solutions were prepared to provide the final dose in a volume of 2.5 mL/kg or 5 mL/kg p.o. for rats. Male, Sprague-Dawley rats from Harlan Industries (Indianapolis, Ind.), weighing 150 to 250 grams at the time of surgery, were used for L5 SNL studies.
Rats in the SNL studies were housed and tested in the same room. Animals were housed in micro-isolator cages in groups of four rats per cage or 5 mice per cage with corncob bedding and free access to food and water. The environment was maintained at a constant temperature of 21° C., with a 12-hour light/dark cycle. Rats undergoing L5 SNL surgery were placed into individual housing cages with alpha dry bedding and had access to enrichment food, food pellets and water ad libitum. Animals were allowed four to six weeks recovery from surgery prior to testing and were not tested beyond eight weeks post-surgery. For L5 SNL testing, only those animals that responded to less than 4 gr force were included in further testing and analysis, being randomized into treatment groups on the day of study. In all tests, the investigator performing the behavioral analysis was blinded to the treatment administered to any individual animal.
For L5 SNL surgery, rats were induced and maintained on isoflurane inhalation anesthesia. A 2-cm skin incision was made just left of midline over the dorsal aspect of the L4-S2 spinal segments, followed by separation of the paraspinal muscles from spinous processes. The transverse process of L6 was then carefully removed and the L5 spinal nerve was identified. The left L5 spinal nerve was then ligated tightly with 6-0 silk thread, the muscle was sutured with 4-0 vicryl, and the skin was closed with wound clips.
Behavioral testing was performed on L5SNL rats at a time between 3-6 weeks post-ligation. […] Tactile allodynia was quantified at 30 min, 1 hr, 2 hrs, 4 hrs, 6 hrs, 8 hrs and/or 24 hr post-dosing by recording the force at which the paw ipsilateral to the nerve ligation was withdrawn from the application of a series of calibrated von Frey filaments (0.4, 0.7, 1.2, 2.0, 3.6, 5.5, 8.5 and 15.1 g; Stoelting; Wood Dale, Ill.). Beginning at an intermediate stiffness (2.0 g), filaments were applied to the mid-plantar hind paw for approximately 5 seconds. A brisk paw withdrawal led to the presentation of the next lighter stimulus and the lack of a withdrawal response led to the presentation of the next stronger stimulus to determine the response threshold. A total of four responses after the first threshold detection were collected. The 50% withdrawal thresholds were interpolated by the method of Dixon (as described in Meert T F and Vermeirsch, H A, Pharmacol. Biochem. Behav.; 2005, 80(2), pp 309-326) and when response thresholds fell above or below the range of detection, respective values of 15.0 or 0.25 g were assigned. […]

[2] = tested on: formalin-induced inflammatory-mediated pain response (licking of injected hind-paw); assay: Mouse Formalin Assay (NINDS); assay type: in vivo, mice
Experimental: The mouse formalin test is an acute and chronic model for testing the ability of a test compound for the treatment of pain.
In the Mouse Formalin Test, 0.5% formalin was injected s.c. into the plantar region of the hind-paw of adult male mice to induce an inflammatory-mediated pain response. Pain was expressed as licking of the injected area in a bi-modal manner—acute and chronic phase. The acute phase occurred immediately and lasted approximately […] post-injection, representing direct stimulation of pain fibers. Licking behavior resumes approximately 10 mins later (˜20 min post injection) and lasted 10-15 min, representing the chronic phase hypothesized to be caused by the release of inflammatory mediators such as cytokines.
Activity in the acute phase of the formalin test is an indicator of acute pain believed to correlate with peripheral pain pathways.
Compound #8 was evaluated in the Mouse Formalin Test as described above. […] For the acute phase the decrease was 52% from control (p<0.01), while for the chronic phase the decrease was 43% from control (p<0.01).

[3] = tested on: paclitaxel-evoked mechano-allodynia and mechano-hyperalgesia; assay: Taxol Induced Peripheral Neuropathy Model (longer term study, Example 20); assay type: in vivo, Sprague-Dawley rats
Experimental: Paclitaxel (Taxol®, Bristol-Myers-Squibb; 6 mg/ml in a 50:50 mixture of Cremophor and ethanol) was diluted just before use with saline to a concentration of 2 mg/ml and injected IP in a volume of 1 ml/kg) on four alternate days (D0, D2, D4, and D6).
Adult male Sprague-Dawley rats (Harlan, Indianapolis, Ind.; Frederick, Md. breeding colony) were caged on sawdust bedding in groups of 3-4 with food and water available ad libitum and a 12:12 hr light-dark cycle.
Group 3 was treated with an equal volume of vehicle, daily, starting on D0 (the same day as the beginning of paclitaxel dosing).
The animals were habituated to the testing environment on three separate days and then three daily baseline sessions were given to measure the normal response rate to stimulation with von Frey hairs exerting 4 g or 15 g of pressure (4 gVFH and 15 gVFH). Normal rats rarely, if ever, withdraw from stimulation with 4 gVFH; thus, a post-paclitaxel increase in responding to this stimulus is indicative of mechano-allodynia. Normal rats withdraw from stimulation with 15 gVFH 10-20% of the time; thus an increased response frequency to this stimulus is indicative of mechano-hyperalgesia.
The animals were positioned beneath upturned plastic mouse cages atop an elevated platform with wire-mesh flooring. Each VFH was applied to the glabrous skin of the mid-heel and the presence or absence of a withdrawal response was noted. This was repeated 5 times on each hind paw and the animal's responses were summarized as a percent response score (e.g., 5 withdrawal responses to 15gVFH stimulation would yield a score of 50%). Behavior was assessed by an observer who was blind as to group assignment.
Behavioral tests for paclitaxel's effects began on day 13 (D13) and were repeated on D15, D17, D21, D24, D28, D31, D35 and D38. […] For these days the drug was given at 0900 h and behavioral tests began at 1300 h. Significant paclitaxel-evoked mechano-allodynia and mechano-hyperalgesia were expected to develop 10-14 days after the last injection of paclitaxel.

[4] = 110 mg/kg, i.p. 15 min prior to formalin injection, p<0.01
[5] = both 60 mg/kg and 120 mg/kg PO daily for 20 days from D0, paclitaxel 2 mg/kg IP D0, D2, D4, D6

Compound: NCC1(CC(=O)O)CCCCC1 [gabapentin, reference compound]
- % reversal (withdrawal threshold) ([1]; Study A, 480 mg/kg, 2 hrs post-dosing, six weeks after surgery): 73.2±14.7%
- % reversal (withdrawal threshold) ([1]; Study A, 480 mg/kg, 4 hrs post-dosing, six weeks after surgery, 480 mg/kg): 73.7±16.6% and 73.4±15.2%
- withdrawal thresholds ([1]; Study A): significantly increased withdrawal thresholds
- % reversal of mechanical allodynia relative to baseline ([1]; Study C, 560 mg/kg, 2 hrs post dosing): 58.7%
- % reversal of mechanical allodynia relative to baseline ([1]; Study C, 560 mg/kg, 4 hrs post dosing): 86.4%
- decrease in mechanical allodynia relative to baseline ([1]; Study C, 560 mg/kg, 6 hrs post dosing): not at 6 hrs post dosing

Compound: NS(=O)(=O)NC[C@H]1COc2cc(Cl)ccc2O1 [Compound #8, (2S)-(−)-N-(6-Chloro-2,3-dihydro-benzo[1,4]dioxin-2-ylmethyl)-sulfamide]
- chronic phase decrease from control ([2]; 60 mg/kg i.p., p<0.01): 40%
- acute phase decrease from control ([2]; 60 mg/kg i.p., p<0.05): 30%
- acute phase decrease from control [2, 4]: 52%
- chronic phase decrease from control [2, 4]: 43%
- % reversal (withdrawal threshold) ([1]; Study A, 120 mg/kg oral, 1 hr): 42.2±13.8%
- % reversal (withdrawal threshold) ([1]; Study A, 120 mg/kg oral, 4 hrs): 45.4±12.2%
- % change (withdrawal threshold) ([1]; Study A, 240 mg/kg, 4 hr): 65.6±21.1%
- withdrawal thresholds ([1]; Study A): significantly increased withdrawal thresholds
- reversal in tactile hypersensitivity, peak effect ([1]; Study B, first administration (Day 1), 480 mg/kg, 4 hrs after dosing, three weeks after surgery): 64.3±9.9%
- reversal in tactile hypersensitivity ([1]; Study B, first administration, other treatment groups (60, 120, 240 mg/kg)): No significant differences were observed
- reversal of tactile hypersensitivity ([1]; Study B, third and seventh day of daily dosing, 60-480 mg/kg): none of the treatment groups exhibited a significant reversal of tactile hypersensitivity
- effect on mechanical allodynia ([1]; Study C, 100 mg/kg, 300 mg/kg or 560 mg/kg, p.o., 4 weeks after surgery): did not show a statistically significant effect up to 6 hrs
- decrease in mechanical allodynia ([1]; Study D, 560 mg/kg p.o. in 10% solutol in HPMC, four weeks after surgery): showed a decrease in mechanical allodynia at 4 hrs and 6 hrs post dosing, but with a p=0.054
- continuation of suppressive effect after the last injection ([3]; 60 mg/kg and 120 mg/kg PO daily): approximately 11 days
- side-effects ([3]; 60 mg/kg and 120 mg/kg PO daily for 20 days): no apparent side-effects
- development of mechano-allodynia (4 gVFH test) [3, 5]: suppressed the development of mechano-allodynia and mechano-hyperalgesia
- development of mechano-hyperalgesia (15 gVFH test) [3, 5]: suppressed the development of mechano-allodynia and mechano-hyperalgesia
